Data: patent publication US20250344734A1, “UNSATURATED FATTY ACIDS AND THEIR USE TO MODIFY TASTE” (Firmenich Incorporated, priority 2022, published 2025)

Key:
Format in all cases: cell-based
T2R64 (TAS2R31) = molecular target: T1, T2R64 (TAS2R31) (Homo sapiens, UniProt P59538); test: FLIPR calcium assay, block of bitter agonist response, T2R64; conditions: unsaturated fatty acid concentration of 200 µM, cells stimulated with known bitter agonist
T1 construct: expressed in transfected cells; host or cells: cells expressing a promiscuous G protein (e.g., G16g44)
T1 sequence (P59538 1-309): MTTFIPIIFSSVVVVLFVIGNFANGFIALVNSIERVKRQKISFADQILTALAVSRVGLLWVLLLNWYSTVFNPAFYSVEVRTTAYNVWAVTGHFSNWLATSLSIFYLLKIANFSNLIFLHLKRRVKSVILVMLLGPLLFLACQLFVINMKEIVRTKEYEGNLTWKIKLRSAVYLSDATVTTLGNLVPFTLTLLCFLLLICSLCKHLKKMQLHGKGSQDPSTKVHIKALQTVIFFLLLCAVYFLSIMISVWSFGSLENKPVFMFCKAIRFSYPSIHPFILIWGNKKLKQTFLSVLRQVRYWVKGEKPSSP
Protocol: (§1) Cells expressing a promiscuous […] (e.g., G16g44) were transfected with vectors encoding 18 functional bitter receptor cDNAs, with one receptor per transfection. The cells were transfected directly in 384-well format high-density plates and incubated for 28 hours. Later, cells were loaded with the Ca-specific dye Fluo4-AM. After an incubation of 60 minutes, excess dye is washed off, and cells are stimulated with a known bitter agonist for each receptor and various unsaturated fatty acids. Changes in intracellular fluorescence are recorded using a FLIPR instrument. Bitter antagonists and corresponding receptors are identified based on percentage inhibition of agonist's activity on a given receptor.
(§2) The above protocol was carried out using 16 different unsaturated fatty acids. A particular T2R receptor was identified as being antagonized by a particular unsaturated fatty acid if it triggered a >25% block of agonist's cellular response at 200 μM concentration of unsaturated fatty acid. […] Table 2 indicates the sixteen (16) compounds tested by their compound number from Table 1 above. The 18 bitter taste receptors screened are the human bitter taste receptors we named. […]

T2R07 (TAS2R07) = molecular target: T2, T2R07 (TAS2R07) (Homo sapiens, UniProt Q9NYW3); test: FLIPR calcium assay, block of bitter agonist response, T2R07; conditions: unsaturated fatty acid concentration of 200 µM, cells stimulated with known bitter agonist
T2 construct: expressed in transfected cells; host or cells: cells expressing a promiscuous G protein (e.g., G16g44)
T2 sequence (Q9NYW3 1-318): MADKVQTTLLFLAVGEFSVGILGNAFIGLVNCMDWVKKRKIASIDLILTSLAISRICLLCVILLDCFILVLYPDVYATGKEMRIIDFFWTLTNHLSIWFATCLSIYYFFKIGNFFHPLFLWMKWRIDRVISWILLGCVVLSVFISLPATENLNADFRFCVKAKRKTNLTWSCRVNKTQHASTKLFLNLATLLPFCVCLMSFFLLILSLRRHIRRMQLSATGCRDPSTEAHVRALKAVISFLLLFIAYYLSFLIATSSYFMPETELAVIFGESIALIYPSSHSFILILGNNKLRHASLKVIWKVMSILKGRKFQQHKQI
Protocol: as §1, §2

T2R71 (TAS2R41) = molecular target: T3, T2R71 (TAS2R41) (Homo sapiens, UniProt P59536); test: FLIPR calcium assay, block of bitter agonist response, T2R71; conditions: unsaturated fatty acid concentration of 200 µM, cells stimulated with known bitter agonist
T3 construct: expressed in transfected cells; host or cells: cells expressing a promiscuous G protein (e.g., G16g44)
T3 sequence (P59536 1-307): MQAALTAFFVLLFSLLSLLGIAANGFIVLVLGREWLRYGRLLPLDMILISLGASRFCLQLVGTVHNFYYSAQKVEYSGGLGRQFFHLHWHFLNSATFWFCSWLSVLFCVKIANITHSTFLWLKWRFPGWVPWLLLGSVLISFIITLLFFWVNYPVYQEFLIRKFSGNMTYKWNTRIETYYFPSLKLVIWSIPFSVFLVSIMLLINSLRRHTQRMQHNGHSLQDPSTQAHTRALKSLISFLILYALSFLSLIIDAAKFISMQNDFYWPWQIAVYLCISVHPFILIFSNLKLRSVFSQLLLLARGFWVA
Protocol: as §1, §2

T2R01 (TAS2R01) = molecular target: T4, T2R01 (TAS2R01) (Homo sapiens, UniProt Q9NYW7); test: FLIPR calcium assay, block of bitter agonist response, T2R01; conditions: unsaturated fatty acid concentration of 200 µM, cells stimulated with known bitter agonist, read-out: percentage block of cellular response over baseline, 01
T4 construct: expressed in transfected cells; host or cells: cells expressing a promiscuous G protein (e.g., G16g44)
T4 sequence (Q9NYW7 1-299): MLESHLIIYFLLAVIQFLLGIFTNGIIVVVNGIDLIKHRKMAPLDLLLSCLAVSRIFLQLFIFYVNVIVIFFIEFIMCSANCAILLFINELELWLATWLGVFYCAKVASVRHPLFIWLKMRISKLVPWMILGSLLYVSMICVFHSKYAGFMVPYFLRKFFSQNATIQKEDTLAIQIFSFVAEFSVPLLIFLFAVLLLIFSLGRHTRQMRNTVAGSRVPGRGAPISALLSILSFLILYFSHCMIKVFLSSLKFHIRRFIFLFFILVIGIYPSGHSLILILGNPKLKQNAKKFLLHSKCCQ
Protocol: as §1
The above protocol was carried out using 16 different unsaturated fatty acids. A particular T2R receptor was identified as being antagonized by a particular unsaturated fatty acid if it triggered a >25% block of agonist's cellular response at 200 μM concentration of unsaturated fatty acid. […] Table 2 indicates the sixteen (16) compounds tested by their compound number from Table 1 above. The 18 bitter taste receptors screened are the human bitter taste receptors we named. T2R01 (TAS2R01), T2R03 (TAS2R03), T2R04 (TAS2R04), T2R07 (TAS2R07), T2R08 (TAS2R08), T2R09 (TAS2R09), T2R10 (TAS2R10), T2R13 (TAS2R13), T2R14 (TAS2R14), T2R16 (TAS2R16), T2R54 (TAS2R39, T2R61 (TAS2R43), T2R63 (TA2R20), T2R64 (TAS2R31), T2R65 (TAS2R19), T2R67 (TAS2R50), T2R71 (TAS2R41), and T2R75 (TAS2R46). The corresponding IUPHAR nomenclature for each receptor is given in parenthesis. In Table 2, these receptors are identified by the last two digits. For example, T2R01 is indicated as 01. Table 2 reports the percentage block of cellular response over baseline at an unsaturated fatty acid concentration of 200 µM.

T2R61 (TAS2R43) = molecular target: T5, T2R61 (TAS2R43) (Homo sapiens, UniProt P59537); test: FLIPR calcium assay, block of bitter agonist response, T2R61; conditions: unsaturated fatty acid concentration of 200 µM, cells stimulated with known bitter agonist
T5 construct: expressed in transfected cells; host or cells: cells expressing a promiscuous G protein (e.g., G16g44)
T5 sequence (P59537 1-309): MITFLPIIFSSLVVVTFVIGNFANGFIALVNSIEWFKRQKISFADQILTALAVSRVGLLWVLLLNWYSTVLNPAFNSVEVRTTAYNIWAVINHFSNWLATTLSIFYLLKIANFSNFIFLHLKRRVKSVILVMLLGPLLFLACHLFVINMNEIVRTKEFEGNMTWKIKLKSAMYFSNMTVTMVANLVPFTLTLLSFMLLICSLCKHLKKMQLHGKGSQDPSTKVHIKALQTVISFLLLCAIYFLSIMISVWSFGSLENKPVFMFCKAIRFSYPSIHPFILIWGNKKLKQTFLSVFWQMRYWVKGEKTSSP
Protocol: as §1, §2

percentage block of cellular response over baseline, 64 (T2R64 (TAS2R31)): >85% | percentage block of cellular response over baseline, 07 (T2R07 (TAS2R07)): >90% | percentage block of cellular response over baseline, 71 (T2R71 (TAS2R41)): 30% | inhibition at 200 µM (T2R01 (TAS2R01)): 40% | percentage block of cellular response over baseline, 61 (T2R61 (TAS2R43)): >90%
Structure (SMILES): CC(C)=CCC/C(C)=C/C(=O)O [Compound 129]
